# Assay results: patent publication US20250108007A1, “LIPID COMPOUND AND LIPID NANOPARTICLE COMPOSITION” (SUZHOU ABOGEN BIOSCIENCES CO., LTD., priority 2021, published 2025)
# Tests used:
# [1] = Size and polydispersity of lipid nanoparticles by dynamic light scattering; type: physicochemical; settings: LNP cationic lipid/DSPC/cholesterol/PEG-lipid 50:10:38.5:1.5 with mRNA
# Experimental: (§1) Briefly, the cationic lipid, DSPC, cholesterol and PEG-lipid provided by the present invention were dissolved in ethanol at a molar ratio of 50:10:38.5:1.5, and mRNA was diluted in a citrate buffer at 10-50 mM, pH=4. The ethanolic lipid solution and the mRNA aqueous solution were mixed at a volume ratio of 1:3 by a microfluidic device at a flow rate of 9-30 mL/min, so as to prepare LNP at a weight ratio of total lipid to mRNA of about 10:1 to 30:1. PBS for dialysis was used instead of ethanol, thereby removing ethanol. Finally, the lipid nanoparticles were filtered through a 0.2 μm sterile filter.
# (§2) The size of the lipid nanoparticles was determined by dynamic light scattering using 173° backscatter detection mode of Malvern Zetasizer Nano ZS (Malvern UK). According to the description of the manufacturer, the encapsulation efficiency of the lipid nanoparticle was determined using a Quant-it Ribogreen RNA quantitative assay kit (Thermo Fisher Scientific, UK).
# [2] = Encapsulation efficiency of lipid nanoparticles (Quant-it Ribogreen RNA assay); type: physicochemical; settings: LNP cationic lipid/DSPC/cholesterol/PEG-lipid 50:10:38.5:1.5 with mRNA
# Experimental: as §1, §2
# female ICR mice = assay: hEPO mRNA lipid nanoparticles in mice, serum EPO by ELISA; type: in vivo; settings: hEPO mRNA LNP, 0.5 mg/kg, tail vein injection, blood e.g. 6 hours after administration, relative to MC3 LNP positive control
# Experimental: Lipid nanoparticles including human erythropoietin (hEPO) mRNA encapsulated by compound in the following table were administered at a dose of 0.5 mg/kg to female ICR mice at 6-8 weeks of age (Xipuer-Bikai, Shanghai) via tail vein injection. Mouse blood samples were taken at specific time points (e.g., 6 hours) after administration. In addition to the above test groups, the lipid nanoparticles including dilinoleylmethyl-4-dimethylaminobutyrate (DLin-MC3-DMA, commonly abbreviated as MC3) encapsulated hEPO mRNA were administered at the same dose to mice of similar age and sex as positive controls.
# After the last sampling time point, the mice were euthanized by excess CO2. Serum was separated from whole blood by centrifugation at 5,000 g for 10 minutes at 4° C., snap frozen and stored at −80° C. for analysis. ELSA analysis was performed using a commercially available kit (DEP00, R&D system) according to the manufacturer instructions.
# The following table lists the characteristics of the tested lipid nanoparticles, including the expression levels measured from the test group above MC3.
Polydispersity index (PDI) [1],Size (nm) [1],Encapsulation efficiency (EE %) [2],SMILES,EPO expression relative to MC3 (female ICR mice)
0.257,68.14 nm,99.1%,CCCCCCCCC(CCCCCCCC)COC(=O)CCCCCN(CCCCCC(=O)OCC(CCCCCCCC)CCCCCCCC)CC1(O)CCN(C(=O)CCCN(C)C)CC1 [Compound 1],Not detected
0.114,80.02 nm,98.1%,CCCCCCCCC(CCCCCCCC)COC(=O)CCCCCN(CCCCCC(=O)OCC(CCCCCCCC)CCCCCCCC)CC1(O)CCN(C)CC1 [Compound 2],Not detected
0.248,78.45 nm,97.3%,CCCCCCCCC(CCCCCCCC)COC(=O)CCCCCN(CCCCCC(=O)OCC(CCCCCCCC)CCCCCCCC)CC1(O)CCN(C(=O)CN(C)C)CC1 [Compound 3],Not detected
0.28,55.63 nm,98.4%,CCCCCCCCC(CCCCCCCC)COC(=O)CCCCCN(CCCCCC(=O)OCC(CCCCCCCC)CCCCCCCC)CC1(O)CCN(C(=O)CCCCN(C)C)CC1 [Compound 4],Not detected
0.034,83.23 nm,92.8%,CCCCCCCCC(CCCCCCCC)COC(=O)CCCCCN(CCCCCC(=O)OCC(CCCCCCCC)CCCCCCCC)CC1(O)CCN(CCC)CC1 [Compound 6],A (A: ≥2)
0.073,43.78 nm,97.6%,CCCCCCCCC(CCCCCCCC)COC(=O)CCCCCN(CCCCCC(=O)OCC(CCCCCCCC)CCCCCCCC)CCC(=O)N1CCC(O)(CN(C)C)CC1 [Compound 7],Not detected
0.16,54.23 nm,93.7%,CCCCCCCCC(CCCCCCCC)COC(=O)CCCCCN1CCC(O)(CN(CCCCCC(=O)OCC(CCCCCCCC)CCCCCCCC)C2CCC2)CC1 [Compound 8],C (C: ≥0.1 and <1)
0.212,35.26 nm,97.6%,CCCCCCCCC(CCCCCC)COC(=O)CCCCCN(CCCCCC(=O)OCC(CCCCCC)CCCCCCCC)CCCCCC(=O)N1CCC(O)(CN(C)C)CC1 (centres unmarked) [Compound 9],Not detected
0.083,133.3 nm,96.7%,CCCCCCCCC(CCCCCC)COC(=O)CCCCCN(CCCCCC(=O)OCC(CCCCCC)CCCCCCCC)CCN1CCC(O)(CN(C)CC)CC1 (centres unmarked) [Compound 10],Not detected
0.045,86.19 nm,96.8%,CCCCCCCCC(CCCCCC)COC(=O)CCCCCN(C)CC1(O)CCN(CCCCCC(=O)OCC(CCCCCC)CCCCCCCC)CC1 (centres unmarked) [Compound 11],B (B: ≥1 and <2)
0.084,109.1 nm,81.5%,CCCCCCCCC(CCCCCC)COC(=O)CCCCCN1CCC(O)(CN(CCCCCC(=O)OCC(CCCCCC)CCCCCCCC)C2CCCC2)CC1 (centres unmarked) [Compound 12],C (C: ≥0.1 and <1)
0.049,117.7 nm,83.9%,CCCCCCCCC(CCCCCC)COC(=O)CCCCCN1CCC(O)(CN(CCCCCC(=O)OCC(CCCCCC)CCCCCCCC)C2CCCCC2)CC1 (centres unmarked) [Compound 13],C (C: ≥0.1 and <1)
0.139,97.33 nm,97.3%,CCCCCCCCC(CCCCCC)COC(=O)CCCCCN(CCCCCC(=O)OCC(CCCCCC)CCCCCCCC)CCN1CCC(O)(CN(C)C)CC1 (centres unmarked) [Compound 14],Not detected
0.06,53.67 nm,94.3%,CCCCCCCCC(CCCCCC)CC(=O)OCC(CCCCN1CCC(O)(CN(C)C)CC1)COC(=O)CC(CCCCCC)CCCCCCCC (centres unmarked) [Compound 15],Not detected
